Where a SMILES comes first, the peptide text is derived from it.
System: human Kv1.3 channel (hKv1.3)
Experiment: Whole-cell patch-clamp of phage-displayed toxins, hKv1.3 in human lymphocytes
Type: cell-based
Conditions: for estimated relative potency in phage-displayed form: from phage concentrations required to reach 50% block of hKv1.3 current, Vm24 = 1, Fig. 9B; for inhibition of Kv1.3 current in phage-displayed form, in words: phage-displayed peptide, DDDKTX1- and KTX1-phage at 3.6 × 10^13 particle/ml
Procedure: Human Kv1.3 currents were recorded from activated peripheral blood mononuclear cells (see below) 3 to 4 days after activation. Heparinized human peripheral venous blood was obtained from healthy volunteers. Mononuclear cells were separated through Histopaque-1077 density gradient centrifugation. Collected cells were washed twice with Ca^2+- and Mg^2+-free Hanks’ solution containing 25 mM Hepes buffer, pH 7.4. Cells were cultured for 3 to 4 days in 24-well culture plates in a 5% CO2 incubator at 37 °C, in RPMI 1640 medium supplemented with 10% fetal calf serum (Sigma-Aldrich), 100 μg/ml penicillin, 100 μg/ml streptomycin, and 2 mM L-glutamine (density, 0.5 × 10^6 cells per ml). Phytohemagglutinin A (Sigma-Aldrich) was added to the medium at 10 μg/ml to amplify the Kv1.3 expression. Cells were washed gently twice with 2 ml of ECS for the patch-clamp experiments.
Conventional whole-cell patch-clamp electrophysiology was used to record ionic currents. Micropipettes were pulled from GC150F-7.5 borosilicate capillaries (Harvard Apparatus) with tip diameters between 0.5 and 1 μm resulting in a tip resistance of 2 to 8 MΩ in the extracellular (bath) solution. All measurements were carried out by using Axopatch 200B amplifier connected to a personal computer using Axon Digidata 1550A data acquisition hardware and Pclamp10.7 software (https://support.moleculardevices.com/s/article/Axon-pCLAMP-10-Electrophysiology-Data-Acquisition-Analysis-Software-Download-Page). The holding potential was −120 mV. Records were discarded when leak at the holding potential was >10% of peak current at the test potential. Experiments were performed at room temperature (20–24 °C). Before analysis, whole-cell current traces were corrected for ohmic leakage and digitally filtered with a three-point boxcar smoothing filter.
Solutions: all salts and components of the solutions were purchased from Sigma Aldrich. The extracellular (bath) solution (ECS) contained 145 mM NaCl, 5 mM KCl, 2.5 mM CaCl2, 1 mM MgCl2, 10 mM Hepes, and 5.5 mM glucose (pH 7.35 with NaOH), while the intracellular (pipette) solution (ICS) contained 140 mM KF, 2 mM MgCl2, 1 mM CaCl2, 11 mM EGTA, and 10 mM Hepes (pH 7.22 with KOH). The osmolarity of the ECS and ICS were 302 mOsM.
Native peptides, phage-expressed peptides, and positive controls used for them were dissolved in ECS supplemented with 0.1 mg/ml bovine serum albumin (BSA; Sigma-Aldrich Hungary). Bath perfusion around the measured cell with different extracellular solutions was achieved using a gravity flow micro perfusion system using a rate of 0.5 ml/min. Excess fluid was removed continuously.
Voltage protocols: For measurement of Kv1.1 to 1.3 currents, voltage steps to +50 mV were applied from a holding potential of −120 mV and the peak current was measured every 15 s. For Kv1.3 currents, 15-ms-long depolarizing pulses were applied. For Kv1.1, 50-ms-long–activating stimuli were used. Kv1.2 currents were evoked by 200-ms-long pulses. […] The remaining current fraction at a given molar concentration was calculated as I/I0, where I0 is the peak current in the absence and I is the peak current at equilibrium block or […] after ∼2 min perfusion by the investigated peptide/phage.
Phage display test solutions were prepared according to routine phage display protocols ([62]). Phosphorylated and annealed oligonucleotides encoding the peptide construct were ligated into linearized pAS62 phagemid vector (https://patents.google.com/patent/WO2022144560A1/en) at a vector/insert ratio of 1:3. The final phagemid construct harbored a signal sequence followed by the peptide of interest, a linker sequence ([…]), and the C-terminal part of the P3 coat protein (amino acids: 216-424 of NP_510891.1). Chemically competent XL1-Blue E. coli cells (2022249, Agilent) were transformed with the ligation product and then streaked onto ampicillin (100 μg/ml) containing LB/Amp plates and incubated for 16 h at 37 °C.

Compound	estimated relative potency in phage-displayed form	inhibition of Kv1.3 current in phage-displayed form, in words
CC[C@H](C)[C@@H]1NC(=O)CNC(=O)[C@H](Cc2ccccc2)NC(=O)[C@H](CCC(N)=O)NC(=O)[C@H](C)NC(=O)[C@H](CCCCN)NC(=O)[C@@H]2CSSC[C@@H](C(=O)N[C@@H](Cc3ccc(O)cc3)C(=O)N3CCC[C@H]3C(=O)N[C@@H](Cc3c[nH]cn3)C(=O)O)NC(=O)[C@H](CCCCN)NC(=O)[C@@H]3CSSC[C@H](NC(=O)[C@H](CCC(N)=O)NC(=O)[C@H](CCCCN)NC(=O)[C@@H]4CCCN4C(=O)[C@H](CO)NC(=O)[C@H]([C@@H](C)O)NC(=O)[C@@H](NC(=O)[C@H](CCCCN)NC(=O)[C@@H](NC(=O)[C@H](CC(=O)O)NC(=O)[C@@H](NC(=O)[C@@H](NC(=O)[C@@H](N)[C@@H](C)O)C(C)C)[C@@H](C)CC)C(C)C)CSSC[C@H](NC(=O)[C@H](CCCCN)NC(=O)[C@H](C)NC(=O)CNC(=O)[C@H](C)NC(=O)[C@H](CCCNC(=N)N)NC1=O)C(=O)N[C@@H](CCSC)C(=O)N[C@@H](CC(N)=O)C(=O)NCC(=O)N[C@@H](CCCCN)C(=O)N3)C(=O)N[C@@H](CC(C)C)C(=O)N1CCC[C@H]1C(=O)N1CCC[C@H]1C(=O)N2 [HgTx1, Hongotoxin-1] (HELM PEPTIDE1{T.V.I.D.V.K.C.T.S.P.K.Q.C.L.P.P.C.K.A.Q.F.G.I.R.A.G.A.K.C.M.N.G.K.C.K.C.Y.P.H}$PEPTIDE1,PEPTIDE1,7:R3-29:R3|PEPTIDE1,PEPTIDE1,13:R3-34:R3|PEPTIDE1,PEPTIDE1,17:R3-36:R3$$$V2.0; N-terminus and C-terminus assumed)	1/30	significant inhibition
CC[C@H](C)[C@H](NC(=O)[C@H](CCC(=O)O)NC(=O)[C@@H](NC(=O)CN)C(C)C)C(=O)N[C@@H](CC(N)=O)C(=O)N[C@H](C(=O)N[C@@H](CCCCN)C(=O)N[C@H]1CSSC[C@@H]2NC(=O)[C@H](CCCCN)NC(=O)CNC(=O)[C@H](Cc3ccccc3)NC(=O)[C@H](CCCNC(=N)N)NC(=O)[C@H](CCSC)NC(=O)CNC(=O)[C@H](C)NC(=O)[C@H](CC(=O)O)NC(=O)[C@H](CCCCN)NC(=O)[C@@H]3CSSC[C@@H](C(=O)N[C@H](C(=O)N4CCC[C@H]4C(=O)N[C@@H](CCCCN)C(=O)O)[C@@H](C)O)NC(=O)[C@H](Cc4c[nH]cn4)NC(=O)[C@H](CSSC[C@H](NC(=O)[C@H](CCC(N)=O)NC(=O)[C@@H]4CCCN4C(=O)[C@H](CO)NC(=O)CNC(=O)[C@H](CO)NC1=O)C(=O)N[C@@H](CC(C)C)C(=O)N[C@@H](CCCCN)C(=O)N1CCC[C@H]1C(=O)N3)NC(=O)[C@H](CCCCN)NC(=O)[C@H](CCCNC(=N)N)NC(=O)[C@H](CC(N)=O)NC(=O)[C@H](CCSC)NC2=O)C(C)C [KTX1, Kaliotoxin-1]	< 1/600	significant inhibition
CC[C@H](C)[C@H](NC(=O)[C@H](C)NC(=O)[C@H](C)NC(=O)[C@H](C)N)C(=O)N[C@@H](CO)C(=O)N[C@H]1CSSC[C@@H]2NC(=O)[C@H](CCCCN)NC(=O)CNC(=O)[C@H](CC(N)=O)NC(=O)[C@H](CCCCN)NC(=O)[C@@H]3CSSC[C@@H](C(N)=O)NC(=O)[C@H](Cc4ccc(O)cc4)NC(=O)[C@H](Cc4ccc(O)cc4)NC(=O)[C@@H]4CSSC[C@H](NC(=O)[C@H](CCCCN)NC(=O)[C@@H]5CCCN5C(=O)[C@@H]5CCCN5C(=O)[C@H](CSSC[C@H](NC(=O)[C@H](CCCCN)NC(=O)[C@H](CCCNC(=N)N)NC(=O)[C@H](CC(N)=O)NC(=O)[C@H](CCSC)NC2=O)C(=O)N[C@@H](CCCCN)C(=O)N4)NC(=O)[C@H](CCC(=O)O)NC(=O)[C@@H]2CCCN2C(=O)[C@H](CO)NC(=O)CNC(=O)[C@H](C(C)C)NC1=O)C(=O)N[C@@H](CCCNC(=N)N)C(=O)N[C@@H](C)C(=O)N[C@@H](CCC(N)=O)C(=O)NCC(=O)N3 [Vm24, Vm24 toxin]	approximately 1	significant inhibition

— publication PMC11002876, “KcsA-Kv1.x chimeras with complete ligand-binding sites provide improved predictivity for screening selective Kv1.x blockers” (The Journal of Biological Chemistry, 2024)
